Assay results published in publication PMC10728895, “Stapled Phd Peptides Inhibit Doc Toxin Induced Growth Arrest in Salmonella” (ACS Chemical Biology, 2023).
Entries after “also recorded” stand apart in the source; their conditions may differ. Positions of bridges follow the written chain, without caps; N, C: chain ends. Non-standard residues stand in square brackets, D forms with d. Residues, ends and D or L forms follow the SMILES beside them. *: point of attachment. 5FAM = O=C1OC2(c3ccc(O)cc3Oc3cc(O)ccc32)c2ccc(C(=O)*)cc21; S5 = C=CCCC[C@](C)(N)C(=O)O; Nle = CCCC[C@H](N)C(=O)O

Key:
[1] = test system: S. typhimurium (14028s) glmS::mCherry strain; assay: Peptide uptake in S. typhimurium by flow cytometry; type: cell-based; conditions: RT; for Uptake into S. typhimurium (% fluorescent cells) / Uptake into S. typhimurium (penetration efficiency): 10 μM FAM-labeled peptide; for Uptake into S. typhimurium (% fluorescent cells): 22 h; for Uptake into S. typhimurium (penetration efficiency): 4 or 22 h, M9 minimal medium
Protocol: S. typhimurium (14028s) glmS::mCherry strain was grown overnight in LB medium containing 1% glucose. The culture was then diluted to an OD600 of approximately 0.1 into 200 μL of fresh M9 minimal medium supplemented with 0.5% arabinose containing 2 or 10 μM of the indicated 5(6)-carboxyfluorescein-labeled Phd^52–73 peptide. The samples were incubated on the bench at RT for 4 or 22 h with no access to light. Bacteria were then spun down, washed with 1 mL of PBS solution, and finally resuspended in 1 mL of PBS solution for flow cytometry analysis (BD LSR II). Constitutively expressed mCherry was used to discriminate bacteria from the debris in each sample.

[2] = test system: E. coli MG1655; assay: Peptide uptake in E. coli by flow cytometry; type: cell-based; conditions: 5 μM FAM-labeled peptide in PBS, 2 h, 37 °C, E. coli MG1655, trypan blue quench, mean ± SD
Protocol: E. coli MG1655 strain was grown in LB medium to an OD600 of around 0.5. Approximately 10^7 cells were washed once with PBS and subsequently incubated with 5 μM of the indicated 5(6)-carboxyfluorescein-labeled Phd^52–73 peptide in PBS (500 μL) for 2 h at 37 °C. Bacteria were washed twice with PBS, and trypan blue (1 mg mL^–1) in PBS was added and incubated for 10 min at RT. Bacteria were washed an additional time with PBS and resuspended in 2 mL of PBS. Flow cytometry analysis was performed using a ThermoFisher Attune NxT and a blue laser (BL1) for fluorescein excitation.

[3] = test system: S. typhimurium (14028s) Δphd-doc::Km strain expressing DocSTm (pBAD33::doc); assay: Growth rescue experiments in DocSTm-expressing S. typhimurium; type: cell-based; conditions: three independent experiments
Protocol: S. typhimurium (14028s) Δphd-doc::Km strains carrying pCA24N (empty vector or encoding for the Phd^52–73 variant) and pBAD33::doc plasmids were grown overnight in LB medium containing 1% glucose and supplemented with 100 μg/mL carbenicillin and 34 μg/mL chloramphenicol antibiotics. Cultures were then diluted to an OD600 of approximately 0.1 into 200 μL of fresh M9 minimal medium supplemented with 0.5% arabinose, 100 μg/mL carbenicillin, 34 μg/mL chloramphenicol, and containing 2 or 10 μM of the indicated synthetic Phd^52–73 peptide. Untreated DocSTm-expressing S. typhimurium as well as S. typhimurium coexpressing Doc and Phd^52–73 peptides were included as controls in each experiment. After 2 h of incubation at RT, samples were transferred to a flat-bottom 96-well plate (Greiner), and OD600 was monitored every 15 min for 24 h at 37 °C using an Infinite M Plex plate reader (Tecan LifeScience) and orbital shaking with 1 mm amplitude. Peptides were tested in three independent experiments.

[4] = test system: DocSTm toxin; conditions: DocSTm 5 μM, peptide 50 μM, pH 8.0; average ± SD, replicates 3-48 (Table S3)
In short: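 Thermal shift with 5 μM recombinant Doc toxin and 50 μM Phd peptides in 20 mM K2HPO4, 50 mM (NH4)2SO4, pH 8.0, SYPRO Orange 3×, ramped 25–95 °C. Tm from Boltzmann fit; ΔTm is peptide-bound minus free DocSTm Tm, triplicates.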

Structure (SMILES)	Uptake into S. typhimurium (% fluorescent cells) [1]	Cellular uptake into E. coli (penetration efficiency) [2]	Uptake into S. typhimurium (penetration efficiency) [1]	other results
CCCC[C@H](NC(=O)[C@H](Cc1c[nH]c2ccccc12)NC(=O)c1ccc2c(c1)C(=O)OC21c2ccc(O)cc2Oc2cc(O)ccc21)C(=O)N[C@@H](CC(=O)O)C(=O)N[C@@H](CC(=O)O)C(=O)N[C@@H](CCC(=O)O)C(=O)N[C@@H](Cc1ccccc1)C(=O)N[C@@H](C)C(=O)N[C@@H](C)C(=O)N[C@H](C(=O)N[C@@H](CCCC)C(=O)N[C@@H](C)C(=O)N[C@H](C(=O)N[C@@H](Cc1c[nH]cn1)C(=O)NCC(=O)N[C@@H](CC(N)=O)C(=O)N[C@@H](CCC(=O)O)C(=O)N[C@@H](CC(C)C)C(=O)N[C@@H](CCCNC(=N)N)C(=O)N[C@@H](CCC(=O)O)C(=O)N[C@@H](CC(C)C)C(=O)N[C@@H](C)C(=O)N[C@@H](CC(=O)O)C(=O)N[C@@H](CCCCN)C(=O)O)C(C)C)[C@@H](C)CC [FAM-1] (5FAM-W[Nle]DDEFAAI[Nle]AVHGNELRELADK-OH)	less than 1%	extremely low uptake	–	Uptake into S. typhimurium, in words ([1]; 2 and 10 μM FAM-labeled peptide, 4 and 22 h): very low uptake
CCCC[C@H](NC(=O)[C@H](Cc1c[nH]c2ccccc12)NC(=O)c1ccc2c(c1)C(=O)OC21c2ccc(O)cc2Oc2cc(O)ccc21)C(=O)N[C@@H](CCCNC(=N)N)C(=O)N[C@@H](CC(=O)O)C(=O)N[C@@H](CCC(=O)O)C(=O)N[C@@H](Cc1ccccc1)C(=O)N[C@@H](C)C(=O)N[C@@H](C)C(=O)N[C@H](C(=O)N[C@@H](CCCC)C(=O)N[C@@H](CCCNC(=N)N)C(=O)N[C@H](C(=O)N[C@@H](Cc1c[nH]cn1)C(=O)NCC(=O)N[C@@H](CC(N)=O)C(=O)N[C@@H](CCC(=O)O)C(=O)N[C@@H](CC(C)C)C(=O)N[C@@H](CCCNC(=N)N)C(=O)N[C@@H](CCC(=O)O)C(=O)N[C@@H](CC(C)C)C(=O)N[C@@H](C)C(=O)N[C@@H](CC(=O)O)C(=O)N[C@@H](CCCCN)C(=O)O)C(C)C)[C@@H](C)CC [FAM-16] (5FAM-W[Nle]RDEFAAI[Nle]RVHGNELRELADK-OH)	–	7–14%	–	–
CCCC[C@H](NC(=O)[C@H](Cc1c[nH]c2ccccc12)NC(=O)c1ccc2c(c1)C(=O)OC21c2ccc(O)cc2Oc2cc(O)ccc21)C(=O)N[C@@H](CCCNC(=N)N)C(=O)N[C@@H](CC(=O)O)C(=O)N[C@@H](CCC(=O)O)C(=O)N[C@@H](Cc1ccccc1)C(=O)N[C@@H](C)C(=O)N[C@@H](C)C(=O)N[C@H](C(=O)N[C@@H](CCCC)C(=O)N[C@@H](CCCNC(=N)N)C(=O)N[C@H](C(=O)N[C@@H](Cc1c[nH]cn1)C(=O)NCC(=O)N[C@@]1(C)CCCC=CCCC[C@@](C)(C(=O)N[C@@H](CC(C)C)C(=O)N[C@@H](C)C(=O)N[C@@H](CC(=O)O)C(=O)N[C@@H](CCCCN)C(=O)O)NC(=O)[C@H](CCCNC(=N)N)NC(=O)[C@H](CC(C)C)NC(=O)[C@H](CCC(=O)O)NC1=O)C(C)C)[C@@H](C)CC [FAM-18] (5FAM-W[Nle]RDEFAAI[Nle]RVHG[S5]ELR[S5]LADK-OH; staple 15-19)	–	7–14%	9–30%	–
CCCC[C@H](NC(=O)[C@H](Cc1c[nH]c2ccccc12)NC(=O)c1ccc2c(c1)C(=O)OC21c2ccc(O)cc2Oc2cc(O)ccc21)C(=O)N[C@@H](CCCNC(=N)N)C(=O)N[C@@H](CC(=O)O)C(=O)N[C@@H](CCC(=O)O)C(=O)N[C@@H](Cc1ccccc1)C(=O)N[C@@H](CCCNC(=N)N)C(=O)N[C@@H](C)C(=O)N[C@H](C(=O)N[C@@H](CCCC)C(=O)N[C@@H](CCCNC(=N)N)C(=O)N[C@H](C(=O)N[C@@H](Cc1c[nH]cn1)C(=O)NCC(=O)N[C@@H](CC(N)=O)C(=O)N[C@@H](CCC(=O)O)C(=O)N[C@@H](CC(C)C)C(=O)N[C@@H](CCCNC(=N)N)C(=O)N[C@@H](CCC(=O)O)C(=O)N[C@@H](CC(C)C)C(=O)N[C@@H](C)C(=O)N[C@@H](CC(=O)O)C(=O)N[C@@H](CCCCN)C(=O)O)C(C)C)[C@@H](C)CC [FAM-19] (5FAM-W[Nle]RDEFRAI[Nle]RVHGNELRELADK-OH)	–	7–14%	–	–
CCCC[C@H](NC(=O)[C@H](Cc1c[nH]c2ccccc12)NC(=O)c1ccc2c(c1)C(=O)OC21c2ccc(O)cc2Oc2cc(O)ccc21)C(=O)N[C@@H](CC(N)=O)C(=O)N[C@@H](CC(N)=O)C(=O)N[C@@H](CCC(=O)O)C(=O)N[C@@H](Cc1ccccc1)C(=O)N[C@@]1(C)CCCC=CCCC[C@@](C)(C(=O)N[C@H](C(=O)N[C@@H](Cc2c[nH]cn2)C(=O)NCC(=O)N[C@@H](CCCNC(=N)N)C(=O)N[C@@H](CCC(N)=O)C(=O)N[C@@H](CC(C)C)C(=O)N[C@@H](CCCNC(=N)N)C(=O)N[C@@H](CCCNC(=N)N)C(=O)N[C@@H](CC(C)C)C(=O)N[C@@H](C)C(=O)N[C@@H](CCCNC(=N)N)C(=O)N[C@@H](CCCCN)C(=O)O)C(C)C)NC(=O)[C@H](CCCC)NC(=O)[C@H]([C@@H](C)CC)NC(=O)[C@H](C)NC1=O [FAM-36] (5FAM-W[Nle]NNEF[S5]AI[Nle][S5]VHGRQLRRLARK-OH; staple 7-11)	more than 20%	–	9–30%	–
CCCC[C@H](NC(=O)[C@H](Cc1c[nH]c2ccccc12)NC(C)=O)C(=O)N[C@@H](CC(N)=O)C(=O)N[C@@H](CC(N)=O)C(=O)N[C@@H](CCC(=O)O)C(=O)N[C@@H](Cc1ccccc1)C(=O)N[C@@]1(C)CCCC=CCCC[C@@](C)(C(=O)N[C@H](C(=O)N[C@@H](Cc2c[nH]cn2)C(=O)NCC(=O)N[C@@H](CCCNC(=N)N)C(=O)N[C@@H](CCC(N)=O)C(=O)N[C@@H](CC(C)C)C(=O)N[C@@H](CCCNC(=N)N)C(=O)N[C@@H](CCCNC(=N)N)C(=O)N[C@@H](CC(C)C)C(=O)N[C@@H](C)C(=O)N[C@@H](CCCNC(=N)N)C(=O)N[C@@H](CCCCN)C(=O)O)C(C)C)NC(=O)[C@H](CCCC)NC(=O)[C@H]([C@@H](C)CC)NC(=O)[C@H](C)NC1=O [Peptide 36] (Ac-W[Nle]NNEF[S5]AI[Nle][S5]VHGRQLRRLARK-OH; staple 7-11)	–	–	–	Growth rescue kinetics ([3]; 10 μM peptide, growth curves over 24 h at 37 °C): faster growth rescue than peptide 1; also recorded: more rapidly than 1; also recorded: faster rate than the unmodified peptide 1; Rescue from DocSTm-induced growth inhibition (OD600) ([3]; 10 μM synthetic peptide, 24 h, 37 °C, start OD600 0.1, M9 minimal medium with 0.5% arabinose): reproducibly rescued DocSTm-induced growth arrest; also recorded: growth rescue was also observed; also recorded: fully rescued; Average Tm of DocSTm in the presence of peptide [4]: 61.3 ± 1.1 °C
